From US10842756B2 (BIOVIIIX S.R.L., priority 2015, dated 2020)

What was measured:
[1] = Release kinetics of the drug by micro-dialysis (QuixSep) into PBS pH 7.4; type: physicochemical; settings: 5FU solution in PBS at 200 μg/ml; up to 60 minutes; ambient temperature
Procedure: In particular, as a receiving step a PBS (phosphate buffered saline) at pH=7.4 was analysed. The method used is micro-dialysis by means of a system known as QuixSep® with a Spectra/pore membrane, MWCO=3500 Da.
The system was maintained under constant magnetic stirring, at ambient temperature, taking samples of the receiving step at predetermined times and re-integrating the collected volume.
The samples were analysed and the values obtained were plotted considering the single collections and re-integrations from the preceding step, so as to obtain a dissolution/release profile.
The data relating to the release percentage were calculated on the basis of a drug loading determined by LC-MS/MS analysis.

[2] = bolus of 600 mg of 5FU, cited from earlier work

dissolution of the free drug [1]: 70%
SMILES: O=c1[nH]cc(F)c(=O)[nH]1 [Batch 5FU, 5-fluorouracil]
plasmatic concentration of 5FU ([2]; after 25 minutes): 10 µg/mL
Cmax ([2]; body surface of 1.7): about 50 μg/ml
